“And” between values parts separate entries of the source, which are not always exact repeats. Identical values can stand only once.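 1) Cells in 96-well plates. 2) Compound, 48 h, 5 concentrations. 3) Linear interpolation between surrounding doses. 4) Unreached endpoint = highest concentration. Abbreviation: GI50, concentration required for 50% inhibition of growth. The concentration for full growth arrest is given as TGI.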

The first assay relates to COLO 205 colon. Briefly: DTP human tumour cell line panel, 48 h.
In general, GI50 refers to the concentration giving 50% growth inhibition. As a reminder, the TGI is the concentration giving total growth inhibition. A higher TGI goes with less potent growth arrest. In the case of `CC1(C)N=C(N)N=C(N)N1c1ccc(CCC(=O)Nc2ccc(S(=O)(=O)F)cc2)c(Cl)c1`, the GI50 was 2.52 µM and the TGI was greater than 100 µM.

As to `O=C(Nc1ccc(C(F)(F)F)cc1[N+](=O)[O-])C(=O)C1NC(=S)NC1=O` (stereo not drawn), the TGI worked out at 26.6 µM.

With `COC(=O)c1ccc2[nH]c(O)c(C(=Nc3ccc(N(C)C(=O)CN4CCN(C)CC4)cc3)c3ccc4c(c3)OCO4)c2c1`, the GI50 was 0.369 µM and the TGI came out at 1.74 µM.

`N[C@H](C(=O)O)[C@@H]1CC(Cl)=NO1`: the GI50 was 43.6 µM and the TGI was greater than 1000 µM.

Compound `Oc1ccc2ccccc2c1N=Nc1cccc2ccccc12` had a TGI greater than 100 µM.

For the compound `COc1ccc2c(c1)NC1=C(C(=O)OC1)C2c1cc(OC)c(OC)c(OC)c1` (stereo not drawn), the GI50 is less than 0.01 µM and the TGI was less than 0.01 µM.

As to `NCCCNCCS`, the GI50 was > 100 µM and 46.9 µM; the total growth inhibition concentration (TGI) was greater than 100 µM.

In turn, `COC(=O)C(=O)CC(=O)CCn1[nH]c(=O)c(Cl)c(Cl)c1=O` gave a TGI greater than 100 µM.

In the case of `Cn1c(Cl)c(/C=C2/C(=O)Nc3ccccc32)c2ccccc21`, the GI50 is 0.705 µM and the TGI worked out at 6.64 µM.

The compound `O=C1C(=O)c2ccccc2C(O)=C1C(C1=C(O)c2ccccc2C(=O)C1=O)c1ccc(Cl)cc1` came in with a TGI of 35.6 µM.

In the case of `Nc1ncnc2c1ncn2C1C=C(CO)C(O)C1O` (stereo not drawn), the TGI is 19.5 µM.

The test system of a further assay is HL-60(TB) leukemia. In words: DTP human tumour cell line panel, 48 h.
Take `CN(c1ccc(NC(=O)Nc2c(Cl)cccc2Cl)cc1)c1ccnc(Nc2cccc(CS(C)(=O)=O)c2)n1`: the GI50 is 24.6 µM and the concentration for total growth inhibition (TGI) was greater than 25 µM.

Take `CCCCCCCCCCCC(=O)OCCOCCOCCOCCOCCOC(=O)CCCCCCCCCCC`: the TGI was greater than 100 µM.

Compound `COc1ccc(C=O)cc1O[Si](C)(C)C(C)(C)C` had a concentration for total growth inhibition (TGI) greater than 100 µM.

The compound `O=C1COc2cc(NC(=S)Nc3ccccc3)ccc2N1` showed a TGI greater than 100 µM.

Regarding `CCCCCCCCn1ccc2cc(NC(=O)Cn3cc(CN4CCCCCC4)nn3)ccc21`, the GI50 is 1.87 µM and the total growth inhibition concentration (TGI) was 3.75 µM.

In turn, `COCCOC(=O)C1=C(O)c2ccccc2S(=O)(=O)N1C` displayed a TGI greater than 100 µM.

In turn, `CNC(=O)OCc1nc(SSC(C)(C)C)n(C)c1COC(=O)NC` showed a TGI of 2.66 µM.

Regarding `CC(C)C(O)(C(C)C)C(C)C`, the TGI was greater than 100 µM.

For `O=C(Nc1ccc(Cl)cc1)C1C(=O)C(=O)N(c2ccc(Cl)cc2)C1=O` (stereo not drawn), the TGI is greater than 100 µM.

In the case of `CCC[CH2][Sn]([CH2]CCC)([O]C(=O)CN)[O]C(=O)CN`, the GI50 is 18.5 µM and the TGI amounted to 65 µM.

`CC1(C)N=C(N)N=C(N)N1c1ccc(CCC(=O)Nc2ccc(S(=O)(=O)F)cc2)c(Cl)c1`: the GI50 is 0.142 µM and the TGI was greater than 100 µM.

`O=C(Nc1ccc(C(F)(F)F)cc1[N+](=O)[O-])C(=O)C1NC(=S)NC1=O` (stereo not drawn): the TGI was greater than 100 µM.

Take `COC(=O)c1ccc2[nH]c(O)c(C(=Nc3ccc(N(C)C(=O)CN4CCN(C)CC4)cc3)c3ccc4c(c3)OCO4)c2c1`: the 50% growth inhibitory concentration (GI50) is 0.415 µM and the TGI was found to be 1.82 µM.

For `N[C@H](C(=O)O)[C@@H]1CC(Cl)=NO1`, the GI50 is 4.89 µM.

For `Oc1ccc2ccccc2c1N=Nc1cccc2ccccc12`, the concentration for total growth inhibition (TGI) was greater than 100 µM.

In the case of `COc1ccc2c(c1)NC1=C(C(=O)OC1)C2c1cc(OC)c(OC)c(OC)c1` (stereo not drawn), the 50% growth inhibitory concentration (GI50) was less than 0.01 µM and the total growth inhibition concentration (TGI) is less than 0.01 µM.

For `NCCCNCCS`, the TGI is greater than 100 µM.

In the case of `COC(=O)C(=O)CC(=O)CCn1[nH]c(=O)c(Cl)c(Cl)c1=O`, the TGI was greater than 100 µM.

In the case of `Cn1c(Cl)c(/C=C2/C(=O)Nc3ccccc32)c2ccccc21`, the GI50 is 0.14 µM and the total growth inhibition concentration (TGI) amounted to 1.92 µM.

`O=C1C(=O)c2ccccc2C(O)=C1C(C1=C(O)c2ccccc2C(=O)C1=O)c1ccc(Cl)cc1`: the TGI stood at 4.83 µM.

Compound `Nc1ncnc2c1ncn2C1C=C(CO)C(O)C1O` (stereo not drawn) gave a TGI of 2.73 µM.

Another assay deals with NCI-H23 lung. Briefly: DTP human tumour cell line panel, 48 h.
Take `CN(c1ccc(NC(=O)Nc2c(Cl)cccc2Cl)cc1)c1ccnc(Nc2cccc(CS(C)(=O)=O)c2)n1`: the GI50 is 2.68 µM and the TGI was 18.5 µM.

As for `CCCCCCCCCCCC(=O)OCCOCCOCCOCCOCCOC(=O)CCCCCCCCCCC`, the TGI is greater than 100 µM.

The compound `COc1ccc(C=O)cc1O[Si](C)(C)C(C)(C)C` registered a TGI greater than 100 µM.

Consider `O=C1COc2cc(NC(=S)Nc3ccccc3)ccc2N1`, for which the TGI was greater than 100 µM.

For `CCCCCCCCn1ccc2cc(NC(=O)Cn3cc(CN4CCCCCC4)nn3)ccc21`, the GI50 is 1.76 µM and the concentration for total growth inhibition (TGI) is 3.77 µM.

`COCCOC(=O)C1=C(O)c2ccccc2S(=O)(=O)N1C` had a TGI greater than 100 µM.

Compound `CNC(=O)OCc1nc(SSC(C)(C)C)n(C)c1COC(=O)NC` gave a TGI of 8.11 µM.

In the case of `CC(C)C(O)(C(C)C)C(C)C`, the total growth inhibition concentration (TGI) was greater than 100 µM.

The compound `O=C(Nc1ccc(Cl)cc1)C1C(=O)C(=O)N(c2ccc(Cl)cc2)C1=O` (stereo not drawn) displayed a TGI greater than 100 µM.

For `CCC[CH2][Sn]([CH2]CCC)([O]C(=O)CN)[O]C(=O)CN`, the GI50 was 21.1 µM and the total growth inhibition concentration (TGI) was determined as 70.2 µM.

Consider `CC1(C)N=C(N)N=C(N)N1c1ccc(CCC(=O)Nc2ccc(S(=O)(=O)F)cc2)c(Cl)c1`, for which the GI50 was 0.888 µM and the TGI was greater than 100 µM.

`O=C(Nc1ccc(C(F)(F)F)cc1[N+](=O)[O-])C(=O)C1NC(=S)NC1=O` (stereo not drawn) had a TGI greater than 100 µM.

In the case of `COC(=O)c1ccc2[nH]c(O)c(C(=Nc3ccc(N(C)C(=O)CN4CCN(C)CC4)cc3)c3ccc4c(c3)OCO4)c2c1`, the GI50 was 0.612 µM and the TGI turned out to be 2.85 µM.

On to `N[C@H](C(=O)O)[C@@H]1CC(Cl)=NO1`, for which the GI50 was 38.2 µM and the TGI was greater than 1000 µM.

In turn, `Oc1ccc2ccccc2c1N=Nc1cccc2ccccc12` displayed a TGI greater than 100 µM.

In the case of `COc1ccc2c(c1)NC1=C(C(=O)OC1)C2c1cc(OC)c(OC)c(OC)c1` (stereo not drawn), the GI50 was less than 0.01 µM and the TGI was greater than 77 µM.

Regarding `NCCCNCCS`, the TGI is greater than 100 µM.

The compound `COC(=O)C(=O)CC(=O)CCn1[nH]c(=O)c(Cl)c(Cl)c1=O` had a TGI greater than 100 µM.

In the case of `Cn1c(Cl)c(/C=C2/C(=O)Nc3ccccc32)c2ccccc21`, the GI50 is 1.02 µM and the TGI is 8.89 µM.

As to `O=C1C(=O)c2ccccc2C(O)=C1C(C1=C(O)c2ccccc2C(=O)C1=O)c1ccc(Cl)cc1`, the TGI turned out to be 27.8 µM.

(Values after PubChem BioAssay (NCI).)
